# Measured values published in US11945806B2, “Stabilization of amyloidogenic immunoglobulin light chains” (The Scripps Research Institute, priority 2019, dated 2024).
# Biological target: WIL-FL (Homo sapiens, UniProt P01721)
# Test: Unlabeled LC Protease Sensitivity Assay (proteinase K)
# Assay type: biochemical
# Settings: small molecule 10 μM, WIL-FL 5 μM, proteinase K 50 nM, 2 hours at 37° C.
# In short: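 Compound at 10 μM (1% DMSO) is mixed with 5 μM WIL-FL and 50 nM proteinase K in PBS pH 7.4/0.02% Pluronic F-127, 37 °C, 2 h, then quenched with PMSF. Remaining protein measured by SEC-UPLC peak area at 280 nm and expressed as fold protection relative to vehicle and no-protease controls.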
row,Compound,Protection (fold protection of LC from protease)
1,"CCN(CC)c1ccc2c(C)c(CCOC(=O)NCc3cccc(-c4ccccc4O)c3)c(=O)oc2c1 [Compound 218, 2-(7-(diethylamino)-4-methyl-2-oxo-2H-chromen-3-yl)ethyl ((2′-hydroxy-[1,1′-biphenyl]-3-yl)methyl)carbamate]",C (C ≥ 0.6)
2,"CCN(CC)c1ccc2c(C)c(CCOC(=O)NCc3cccc(-c4ccccc4OS(=O)(=O)F)c3)c(=O)oc2c1 [Compound 219, 3′-((((2-(7-(diethylamino)-4-methyl-2-oxo-2H-chromen-3-yl)ethoxy)carbonyl)amino)methyl)-[1,1′-biphenyl]-2-yl sulfurofluoridate]",A (A < 0.3))
3,"CCN(CC)c1ccc2c(C)c(CCOC(=O)NCc3cncc(-c4ccc[nH]c4=O)c3)c(=O)oc2c1 [Compound 220, 2-(7-(diethylamino)-4-methyl-2-oxo-2H-chromen-3-yl)ethyl ((2′-oxo-1′,2′-dihydro-[3,3′-bipyridin]-5-yl)methyl)carbamate]",A (A < 0.3))
4,"CCN(CC)c1ccc2c(C)c(CCN3CC4(CCN(c5ncccn5)CC4)NC3=O)c(=O)oc2c1 [Compound 221, 3-(2-(7-(diethylamino)-4-methyl-2-oxo-2H-chromen-3-yl)ethyl)-8-(pyrimidin-2-yl)-1,3,8-triazaspiro[4.5]decan-2-one]",C (C ≥ 0.6)
5,"CCN(CC)c1ccc2c(C)c(CCN3CC4(CCN(c5ncnc6[nH]ncc56)CC4)NC3=O)c(=O)oc2c1 [Compound 222, 3-(2-(7-(diethylamino)-4-methyl-2-oxo-2H-chromen-3-yl)ethyl)-8-(1H-pyrazolo[3,4-d]pyrimidin-4-yl)-1,3,8-triazaspiro[4.5]decan-2-one]",C (C ≥ 0.6)
6,"CCN(CC)c1ccc2c(C)c(CCN3CC4(CCN(c5nccn6ccnc56)CC4)NC3=O)c(=O)oc2c1 [Compound 223, 3-(2-(7-(diethylamino)-4-methyl-2-oxo-2H-chromen-3-yl)ethyl)-8-(imidazo[1,2-a]pyrazin-8-yl)-1,3,8-triazaspiro[4.5]decan-2-one]",C (C ≥ 0.6)
7,"Cc1cc(=O)oc2cc(C#N)ccc12 [Compound 224, 4-methyl-2-oxo-2H-chromene-7-carbonitrile]",A (A < 0.3))
8,"Cc1cc(=O)oc2cc(C(=O)O)ccc12 [Compound 225, 4-methyl-2-oxo-2H-chromene-7-carboxylic acid]",A (A < 0.3))
9,"Cc1cc(=O)oc2cc(C(=O)NCc3ccccn3)ccc12 [Compound 226, 4-methyl-2-oxo-N-(pyridin-2-ylmethyl)-2H-chromene-7-carboxamide]",A (A < 0.3))
10,"Cc1cc(=O)oc2cc(C(=O)Nc3ccc4ccccc4c3)ccc12 [Compound 227, 4-methyl-N-(naphthalen-2-yl)-2-oxo-2H-chromene-7-carboxamide]",A (A < 0.3))
11,"Cc1cc(=O)oc2cc(C(=O)NCc3ccncc3)ccc12 [Compound 228, 4-methyl-2-oxo-N-(pyridin-4-ylmethyl)-2H-chromene-7-carboxamide]",A (A < 0.3))
12,"Cc1cc(=O)oc2cc(C(=O)Nc3cc(Cl)c(O)c(Cl)c3)ccc12 [Compound 229, N-(3,5-dichloro-4-hydroxyphenyl)-4-methyl-2-oxo-2H-chromene-7-carboxamide]",A (A < 0.3))
13,"Cc1cc(=O)oc2cc(C(=O)NCc3ccc(O)cc3)ccc12 [Compound 230, N-(4-hydroxybenzyl)-4-methyl-2-oxo-2H-chromene-7-carboxamide]",A (A < 0.3))
14,"C=CCN(CC=C)c1ccc2c(C)cc(=O)oc2c1 [Compound 231, 7-(diallylamino)-4-methyl-2H-chromen-2-one]",A (A < 0.3))
15,"Cc1cc(=O)oc2cc(C(=O)NCCc3ccc(O)cc3)ccc12 [Compound 232, N-(4-hydroxyphenethyl)-4-methyl-2-oxo-2H-chromene-7-carboxamide]",A (A < 0.3))
16,"Cc1cc(=O)oc2cc(C(=O)Nc3ccc4ccccc4n3)ccc12 [Compound 233, 4-methyl-2-oxo-N-(quinolin-2-yl)-2H-chromene-7-carboxamide]",A (A < 0.3))
17,"Cc1cc(=O)oc2cc(C(=O)Nc3ccnc4ccccc34)ccc12 [Compound 234, 4-methyl-2-oxo-N-(quinolin-4-yl)-2H-chromene-7-carboxamide]",A (A < 0.3))
18,"Cc1cc(=O)oc2cc(C(=O)Nc3ccc4ncccc4c3)ccc12 [Compound 235, 4-methyl-2-oxo-N-(quinolin-6-yl)-2H-chromene-7-carboxamide]",A (A < 0.3))
19,"Cc1cc(=O)oc2cc(C(=O)NCc3c[nH]c4ccccc34)ccc12 [Compound 236, N-((1H-indol-3-yl)methyl)-4-methyl-2-oxo-2H-chromene-7-carboxamide]",A (A < 0.3))
20,"Cc1cc(=O)oc2cc(C(=O)NCc3ccc4[nH]ccc4c3)ccc12 [Compound 237, N-((1H-indol-5-yl)methyl)-4-methyl-2-oxo-2H-chromene-7-carboxamide]",A (A < 0.3))
21,"Cc1cc(=O)oc2cc(C(=O)Nc3ccc4[nH]cnc4c3)ccc12 [Compound 238, N-(1H-benzo[d]imidazol-6-yl)-4-methyl-2-oxo-2H-chromene-7-carboxamide]",A (A < 0.3))
22,"Cc1cc(=O)oc2cc(C(=O)Nc3ccc4scnc4c3)ccc12 [Compound 239, N-(benzo[d]thiazol-5-yl)-4-methyl-2-oxo-2H-chromene-7-carboxamide]",A (A < 0.3))

row,Compound,Protection (fold protection of LC from protease)
1,"C=CCNc1ccc2c(C)cc(=O)oc2c1 [Compound 240, 7-(allylamino)-4-methyl-2H-chromen-2-one]",A (A < 0.3))
2,"CCCN(CCC)c1ccc2c(C)cc(=O)oc2c1 [Compound 241, 7-(dipropylamino)-4-methyl-2H-chromen-2-one]",A (A < 0.3))
3,"CCCNc1ccc2c(C)cc(=O)oc2c1 [Compound 242, 4-methyl-7-(propylamino)-2H-chromen-2-one]",A (A < 0.3))
4,"C=C(C)CN(CC(=C)C)c1ccc2c(C)cc(=O)oc2c1 [Compound 243, 7-(bis(2-methylallyl)amino)-4-methyl-2H-chromen-2-one]",A (A < 0.3))
5,"C=C(C)CNc1ccc2c(C)cc(=O)oc2c1 [Compound 244, 4-methyl-7-((2-methylallyl)amino)-2H-chromen-2-one]",A (A < 0.3))
6,"Cc1cc(=O)oc2cc(N(CC3CC3)CC3CC3)ccc12 [Compound 245, 7-(bis(cyclopropylmethyl)amino)-4-methyl-2H-chromen-2-one]",A (A < 0.3))
7,"Cc1cc(=O)oc2cc(NCC3CC3)ccc12 [Compound 246, 7-((cyclopropylmethyl)amino)-4-methyl-2H-chromen-2-one]",A (A < 0.3))
8,"C=CCCNc1ccc2c(C)cc(=O)oc2c1 [Compound 247, 7-(but-3-en-1-ylamino)-4-methyl-2H-chromen-2-one]",A (A < 0.3))
9,"C#CCN(CC#C)c1ccc2c(C)cc(=O)oc2c1 [Compound 248, 7-(di(prop-2-yn-1-yl)amino)-4-methyl-2H-chromen-2-one]",B (3 ≤ B < 0.6)
10,"C#CCNc1ccc2c(C)cc(=O)oc2c1 [Compound 249, 4-methyl-7-(prop-2-yn-1-ylamino)-2H-chromen-2-one]",A (A < 0.3))
11,"Cc1cc(=O)oc2cc(N(CCCF)CCCF)ccc12 [Compound 250, 7-(bis(3-fluoropropyl)amino)-4-methyl-2H-chromen-2-one]",A (A < 0.3))
12,"Cc1cc(=O)oc2cc(NCCCF)ccc12 [Compound 251, 7-((3-fluoropropyl)amino)-4-methyl-2H-chromen-2-one]",A (A < 0.3))
13,"C=CCN(C)c1ccc2c(C)cc(=O)oc2c1 [Compound 252, 7-(allyl(methyl)amino)-4-methyl-2H-chromen-2-one]",A (A < 0.3))
14,"CCCN(C)c1ccc2c(C)cc(=O)oc2c1 [Compound 253, 4-methyl-7-(methyl(propyl)amino)-2H-chromen-2-one]",A (A < 0.3))
15,"C=C(C)CN(C)c1ccc2c(C)cc(=O)oc2c1 [Compound 254, 4-methyl-7-(methyl(2-methylallyl)amino)-2H-chromen-2-one]",A (A < 0.3))
16,"Cc1cc(=O)oc2cc(N(C)CC3CC3)ccc12 [Compound 255, 7-((cyclopropylmethyl)(methyl)amino)-4-methyl-2H-chromen-2-one]",A (A < 0.3))
17,"C=CCCN(C)c1ccc2c(C)cc(=O)oc2c1 [Compound 256, 7-(but-3-en-1-yl(methyl)amino)-4-methyl-2H-chromen-2-one]",A (A < 0.3))
18,"C#CCN(C)c1ccc2c(C)cc(=O)oc2c1 [Compound 257, 4-methyl-7-(methyl(prop-2-yn-1-yl)amino)-2H-chromen-2-one]",A (A < 0.3))
19,"Cc1cc(=O)oc2cc(N(C)CCCF)ccc12 [Compound 258, 7-((3-fluoropropyl)(methyl)amino)-4-methyl-2H-chromen-2-one]",A (A < 0.3))
20,"C#CCN(CC=C)c1ccc2c(C)cc(=O)oc2c1 [Compound 259, 7-(allyl(prop-2-yn-1-yl)amino)-4-methyl-2H-chromen-2-one]",A (A < 0.3))
21,"C#CCN(CCC)c1ccc2c(C)cc(=O)oc2c1 [Compound 260, 4-methyl-7-(prop-2-yn-1-yl(propyl)amino)-2H-chromen-2-one]",A (A < 0.3))
